Laboratory results from US20240059740A1, “CYCLIC PEPTIDES AND USES THEREOF” (PRE[…] INC., priority 2020, published 2024).

What was measured:
recombinant MMP-2 = biological target: T1, recombinant MMP-2 (Homo sapiens, UniProt P08253); assay: MMP-2 Inhibitor Screening Assay Kit (colorimetric); assay type: biochemical; conditions: lower value = higher inhibitory activity
T1 construct: purchased ab139446
T1 sequence (P08253 110-660): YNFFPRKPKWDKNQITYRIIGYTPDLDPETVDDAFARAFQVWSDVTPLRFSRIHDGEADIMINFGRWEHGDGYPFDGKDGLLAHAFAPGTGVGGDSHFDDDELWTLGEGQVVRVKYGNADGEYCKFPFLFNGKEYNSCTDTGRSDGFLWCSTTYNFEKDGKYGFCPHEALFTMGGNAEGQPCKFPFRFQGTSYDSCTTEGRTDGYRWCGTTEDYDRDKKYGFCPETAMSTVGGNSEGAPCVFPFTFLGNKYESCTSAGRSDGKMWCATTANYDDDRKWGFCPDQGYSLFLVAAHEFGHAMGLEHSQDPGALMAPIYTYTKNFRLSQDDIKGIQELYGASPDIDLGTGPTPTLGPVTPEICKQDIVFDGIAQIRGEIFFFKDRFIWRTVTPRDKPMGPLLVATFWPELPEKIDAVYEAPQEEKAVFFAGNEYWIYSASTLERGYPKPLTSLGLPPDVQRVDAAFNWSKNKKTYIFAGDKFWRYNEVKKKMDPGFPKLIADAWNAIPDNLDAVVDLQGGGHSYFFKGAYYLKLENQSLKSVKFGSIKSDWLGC
Procedure: MMP-2 is an important target for inhibitor screening due to its involvement in cancer growth, angiogenesis, and metastasis. The MMP-2 screening assay was carried out with a commercially available MMP-2 Inhibitor Screening Assay Kit (Colorimetric, Catalog: ab139446) based on the manufacturers protocol. This assay is based on quantification of recombinant MMP-2 activity using a colorimetric assay (MMP-2 degrades a chromogenic substrate). The assay provides NNGH (N-isobutyl-N-(4-methoxyphenylsulfonyl) glycyl hydroxamic acid), a small molecule inhibitor, as a positive control (NNGH). […] Each determination was run in duplicate.
% Inhibition rate=(Vinhibitor/Vcontrol)×100
Briefly, MMP Substrate and MMP Inhibitor were warmed to room temperature to thaw DMSO. MMP Inhibitor (NNGH), MMP-2 substrate and MMP-2 enzyme were diluted with assay buffer to required concentration. 20 μL of MMP-2 enzyme and MMP-2 inhibitor (peptides, Chlorotoxin and NNGH) was added, then 50 μL of assay buffer was added and the reaction mixture incubated at 37° C. for 1 h. After incubation, 10 μL of MMP Substrate was added to start reaction. The reactions were continuously read at 412 nm in a microplate reader. Data was recorded at 1 min. time intervals for 10 to 20 min. The data as was plotted as optical density (OD) versus time for each sample. The reaction velocity (V) was obtained in OD/min: determine the slope of a line fit to the linear portion of the data plot using an appropriate routine. Then using the equation above the inhibitor % activity remaining was calculated. The control was without inhibitor.

U87 cells = assay: BME cell invasion assay, U87; assay type: cell-based, human; conditions: 1 μM, 24 h
Procedure: (§1) To assess whether the ability of SEQ ID NO.1 to inhibit MMP-2 activity and, to a lesser extent, reduce the production of matrix proteinases and downregulate the expression of EMT markers, was of functional consequence in reducing the invasiveness of the GBM cells, the ability of the peptide was tested at the concentrations of 1, 10 and 100 μM (none of which are toxic to cells) to inhibit invasion of the GBM cells through a basement membrane. This assay, described in more detail below, is an in vitro surrogate for measurement of the in vivo invasion by tumour cells of their environment.
(§2) The cell invasion assay employs a simplified Boyden chamber-like design that consists of two chambers separated by a filter (an 8 μm polycarbonate (PC) membrane) coated with basement membrane or different extracellular matrix components. The cell suspension is placed in the top chamber and incubated in the presence of test media containing specific chemo-attractants in the bottom chamber. Cells migrate from the top chamber to the bottom of the filter by degrading the coating over the filter pores. Detection of cell invasion is quantified using Calcein AM. Cell dissociation/Calcein AM solution is placed in the bottom chamber to dissociate the migrating cells from the filter. Calcein AM is internalized by the cells, and intracellular-esterases cleave the aceto-methylester (AM) moiety. Free Calcein fluoresces brightly and is used to quantitate the number of cells that have invaded or migrated by comparison with a standard curve (In Vitro Technologies Pty Ltd, (https://lifescience.invitro.com.au/brands/r-and-d-systems/).
(§3) The filter was coated with PathClear® growth factor reduced BME. The selected peptides were applied to the cells in both upper and lower wells to make sure the concentration of peptides were the same and the chemoattractant was serum at a concentration of 2% (for adherent U87 & U251 cells) or growth factor mix required in the medium (for non- adherent, 081024 oncospheres).
(§4) Cell invasion was determined using CultureCoat® 96 Well Medium BME Cell Invasion assay. Briefly, the cells were pre-starved 24 h before harvest. Then seeding 25,000 per well of cell in the upper chamber with serum free medium together different concentration of peptide. The bottom chamber also added different concentration of peptides with 2% (V/V) serum for GBM adherent cells or growth factor mix for neurosphere cells as chemoattractant. After 24 h incubation, the invading cells were measured by Calcein AM and calculated based on standard curve.
(§5) The results are shown in Table 12, the results are expressed as % inhibition.

U251 cells = assay: BME cell invasion assay, U251; assay type: cell-based, human; conditions: 1 μM, 24 h
Procedure: as §1, §2, §3, §4, §5

081024 cells = assay: BME cell invasion assay, 081024; assay type: cell-based, human; conditions: 1 μM, 24 h
Procedure: as §1, §2, §3, §4, §5

Row | Compound | remaining activity (recombinant MMP-2; 1.3 μM) [%] | remaining activity (recombinant MMP-2; 1 μM, 1 h preincubation at 37° C.) [%] | Invasion Inhibition Index (%) (U87 cells) | Invasion Inhibition Index (%) (U251 cells) | Invasion Inhibition Index (%) (081024 cells)
1 | COc1ccc(S(=O)(=O)N(CC(=O)NO)CC(C)C)cc1 [NNGH, N-isobutyl-N-(4-methoxyphenylsulfonyl) glycyl hydroxamic acid, reference compound] | 2.29 | – | – | – | –
2 | Chlorotoxin [reference compound] | – | 67.94 | 39.5 | 28.50 | 45.0
